Reference: patent publication US20250250230A1, “HETEROCYCLIC COMPOUND” (TAKEDA PHARMACEUTICAL COMPANY LIMITED, priority 2022, published 2025)

Target: T1, human orexin type 2 receptor (Homo sapiens, UniProt O43614)
T1 construct: expressed in transfected cells
T1 sequence (O43614 1-444): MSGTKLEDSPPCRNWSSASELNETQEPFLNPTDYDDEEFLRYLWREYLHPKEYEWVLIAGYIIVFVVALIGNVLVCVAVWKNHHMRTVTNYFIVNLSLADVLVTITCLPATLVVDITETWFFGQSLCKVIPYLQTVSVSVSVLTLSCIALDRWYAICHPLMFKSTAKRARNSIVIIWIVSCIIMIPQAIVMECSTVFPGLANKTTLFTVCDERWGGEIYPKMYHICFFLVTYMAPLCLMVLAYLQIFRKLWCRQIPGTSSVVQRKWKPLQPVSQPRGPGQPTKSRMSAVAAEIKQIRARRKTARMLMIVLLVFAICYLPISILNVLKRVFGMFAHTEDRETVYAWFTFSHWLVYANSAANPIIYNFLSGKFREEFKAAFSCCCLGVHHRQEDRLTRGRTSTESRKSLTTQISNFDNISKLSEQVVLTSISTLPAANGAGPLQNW
Test: Measurement of orexin type 2 receptor agonist activity (calcium fluorescence, Fluo-4 AM, FDSS)
Format: cell-based
Settings: test compound 3 μM; CHO cells expressing human OX2 receptor; DMSO = 0%, orexin A (human) = 100%
How it was run: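 Agonist response scaled between vehicle (0%) and human orexin A at 10 nM final (100%), from 2-min kinetic Fluo-4 fluorescence reads. Stable hOX2R CHO-K1 clone, dye-loaded in HBSS/20 mM HEPES/0.1% BSA with 1.25 mM probenecid before compound addition.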

Structure (SMILES)	OX2R agonist activity (3 μM, %)
CS(=O)(=O)NC1CCCN(C(=O)C2CC2c2c(F)cccc2-c2c(F)cccc2F)C1 (stereo not drawn) [Example 211, N-{1-[2-(2′-3,6′-trifluoro[1,1′-biphenyl]-2-yl)cyclopropane-1-carbonyl]piperidin-3-yl}methanesulfonamide optical isomer]	105%
CS(=O)(=O)N[C@@H]1CN(C(=O)C2CC2c2ccccc2-c2c(F)cccc2F)CCC1(F)F (stereo partly drawn) [Example 215, N-{(3R)-1-[(1R,2R)-2-(2′,6′-difluoro [1,1′-biphenyl]-2-yl)cyclopropane-1-carbonyl]-4,4-difluoropiperidin-3-yl}methanesulfonamide, or N-{(3R)-1-[(1S,2S)-2-(2′,6′-difluoro[1,1′-biphenyl]-2-yl)cyclopropane-1-carbonyl]-4,4-difluoropiperidin-3-yl}methanesulfonamide]	98%
CS(=O)(=O)N[C@@H]1CN(C(=O)C2CC2c2ccccc2-c2c(F)cccc2F)CC[C@@H]1F (stereo partly drawn) [Example 216, N-{(3R,4S)-1-[(1R,2R)-2-(2′,6′-difluoro[1,1′-biphenyl]-2-yl)cyclopropane-1-carbonyl]-4-fluoropiperidin-3-yl}methanesulfonamide, or N-{(3R,4S)-1-[(1S,2S)-2-(2′,6′-difluoro[1,1′-biphenyl]-2-yl)cyclopropane-1-carbonyl]-4-fluoropiperidin-3-yl}methanesulfonamide]	99%
CS(=O)(=O)NC1CN(C(=O)C2CC2c2c(F)cccc2-c2c(F)cccc2F)CC1(F)F (stereo not drawn) [Example 226, N-{4,4-difluoro-1-[2-(2′,3,6′-trifluoro[1,1′-biphenyl]-2-yl)cyclopropane-1-carbonyl]pyrrolidin-3-yl}methanesulfonamide optical isomer]	104%
CS(=O)(=O)N[C@H]1C[C@@H](F)CN(C(=O)[C@@H]2C[C@H]2c2ccccc2-c2c(F)cccc2F)C1 [Example 232, N-{(3S,5R)-1-[(1R,2R)-2-(2′,6′-difluoro[1,1′-biphenyl]-2-yl)cyclopropane-1-carbonyl]-5-fluoropiperidin-3-yl}methanesulfonamide]	103%
CS(=O)(=O)NC1CCC2CN(C(=O)C3CC3c3ccccc3-c3c(F)cccc3F)CC21 (stereo not drawn) [Example 238, N-2-[(2-(2′,6′-difluoro[1,1′-biphenyl]-2-yl)cyclopropane-1-carbonyl]octahydrocyclopenta[c]pyrrol-4-yl}methanesulfonamide Optical Isomer]	98%
CCS(=O)(=O)N[C@H]1CCCN(C(=O)C2CC2c2ccccc2-c2c(F)cccc2F)C1 (stereo partly drawn) [Example 239, N-{(3S)-1-[(1R,2R)-2-(2′,6′-difluoro[1,1′-biphenyl]-2-yl)cyclopropane-1-carbonyl]piperidin-3-yl}ethanesulfonamide, or N-{(3S)-1-[(1S,2S)-2-(2′,6′-difluoro[1,1′-biphenyl]-2-cyclopropane-1-carbonyl]piperidin-3-yl}ethanesulfonamide]	97%
CCS(=O)(=O)N[C@@H]1CN(C(=O)[C@@H]2C[C@H]2c2ccccc2-c2c(F)cccc2F)CCC1(F)F [Example 240, N-{(3R)-1-[(1R,2R)-2-(2′,6′-difluoro[1,1′-biphenyl]-2-yl)cyclopropane-1-carbonyl]-4,4-difluoropiperidin-3-yl}ethanesulfonamide]	100%
CS(=O)(=O)N[C@@H]1CN(C(=O)[C@@H]2C[C@H]2c2ccccc2-c2c(F)cccc2F)C[C@@H]1F [Example 241, N-{(3R,4S)-1-[(1R,2R)-2-(2′,6′-difluoro[1,1′-biphenyl]-2-yl)cyclopropane-1-carbonyl]-4-fluoropyrrolidin-3-yl}methanesulfonamide]	103%
